Results as given in paper PMC6494957 (Frontiers in Microbiology, 2019).
Where two headings read alike, the source gives them in different places.

How the values were obtained:
A. baumannii ATCC 12457 = assay: microbe, parasite or virus in culture; conditions: for MIC: Acinetobacter baumannii
Protocol: (§1) The MIC for ampicillin or gentamicin against each isolate was determined for each test to serve as an internal quality control. The MICs of isolates were determined by visual reading and using an EnSpire Multimode Plate Reader 2300 atA600nm.
(§2) Briefly, antimicrobial stock solutions for robenidine and PMBN were prepared at a concentration of 12.8 mg/ml in DMSO. […] A 1 μl aliquot of the first compound from each combination was dispensed along the abscissa (from row A to G) of the 96-well microplate, while the second compound was dispensed along the ordinate (from column 12 to column 3) using an electronic multichannel pipette followed by 89 μl of LB broth. Each well of the plate was inoculated with an aliquot of 10 μl bacterial suspension at a concentration of 1-5 × 10^6 colony forming units (CFU) per ml. Subsequently, the plate was incubated at 37°C for 24 h. The fractional inhibitory concentration index (FICI) described the results of the combinations, and was calculated utilizing the following formula:
(§3) DRI = MIC of drug alone/MIC of drug in combination

A. baumannii ATCC 19606 = assay: microbe, parasite or virus in culture; conditions: for MIC: Acinetobacter baumannii
Protocol: as §1, §2, §3

[1] = tested on: A. calcoaceticus (human clinical isolate); assay: microbe, parasite or virus in culture; conditions: for MIC: Acinetobacter calcoaceticus
Protocol: as §1, §2, §3

E. coli ATCC 11229 = assay: microbe, parasite or virus in culture; conditions: for MIC: Escherichia coli
Protocol: as §1, §2, §3

E. coli ATCC 25922 = assay: microbe, parasite or virus in culture; conditions: for MIC: Escherichia coli
Protocol: as §1, §2, §3

K. pneumoniae ATCC 13883 = assay: microbe, parasite or virus in culture; conditions: for MIC: Klebsiella pneumoniae
Protocol: as §1, §2, §3

P. aeruginosa ATCC 27853 = assay: microbe, parasite or virus in culture; conditions: for MIC: Pseudomonas aeruginosa
Protocol: as §1, §2, §3

P. mirabilis ATCC 43071 = assay: microbe, parasite or virus in culture; conditions: for MIC: Proteus mirabilis
Protocol: as §1, §2, §3

P. putida ATCC 17428 = assay: microbe, parasite or virus in culture; conditions: for MIC: Pseudomonas putida
Protocol: as §1, §2, §3

[2] = tested on: preformed biofilms of P. aeruginosa PA01 and clinical isolates of P. aeruginosa; assay: Antibiofilm susceptibility (MBEC device) and biofilm checkerboard; format: cell-based, Pseudomonas aeruginosa; conditions: Gram-negative (P. aeruginosa) biofilms; vs growth control
Protocol: Briefly, biofilms of P. aeruginosa PA01, two clinical isolates of P. aeruginosa isolates and two clinical isolates of S. pseudintermedius were formed by inoculating 150 μl of 10^7 CFU/ml of each bacterial suspension in the MBEC^TM device. The inoculated device was aerobically incubated on an orbital shaker at 37°C (OM11, Ratek Instruments Pty Ltd., Australia) for 24 h to produce equivalent (Uniform) biofilms on all pegs. […] Following antimicrobial challenge, the biofilms were rinsed twice with phosphate buffered saline (pH = 7) and disrupted via sonication (Soniclean, Model 160TD, Australia) for 10 min into the recovery medium. Viable cell counts were determined for recovered cells (colony-forming units per peg) after preparing a serial dilution and plating 10 μl in duplicates of each dilution onto plate count agar. Viable counts were then expressed as a percentage of the mean CFU of growth controls. MBEC was defined as the lowest concentration of antimicrobial agent that eradicates the biofilms recovered from the antimicrobial challenge.
Briefly, the MBEC^TM High-throughput assay system (MBEC^TM BioProducts, Innovotech, Canada) was used for the preparation of Gram-positive and Gram-negative biofilm producing bacteria as described above for antibiofilm susceptibility testing. […] Subsequently, the plate was incubated at 37°C for 24 h.

O=C(O)CN(CCN(CC(=O)O)CC(=O)O)CC(=O)O [EDTA, ethylenediaminetetraacetic acid]
DRI EDTA:ROB (A. baumannii ATCC 12457; A. baumannii ATCC 12457, DRI of the labelled component): 2
MIC in combination EDTA:ROB (mM in parentheses) (A. baumannii ATCC 12457; A. baumannii ATCC 12457, EDTA component): 0.25 mM
MIC in combination EDTA:ROB (A. baumannii ATCC 12457; A. baumannii ATCC 12457, concentration of the labelled component): 95 µg/mL
MIC (A. baumannii ATCC 12457; ATCC12457, read-out: MIC, single drug): 190 µg/mL
MIC (A. baumannii ATCC 12457; ATCC12457, read-out: MIC, single drug (mM in parentheses)): 0.5 mM
DRI EDTA:ROB (A. baumannii ATCC 19606; A. baumannii ATCC 19606, DRI of the labelled component): 2
MIC in combination EDTA:ROB (mM in parentheses) (A. baumannii ATCC 19606; A. baumannii ATCC 19606, EDTA component): 0.5 mM
MIC in combination EDTA:ROB (A. baumannii ATCC 19606; A. baumannii ATCC 19606, concentration of the labelled component): 190 µg/mL
MIC (A. baumannii ATCC 19606; ATCC19606, read-out: MIC, single drug): 380 µg/mL
MIC (A. baumannii ATCC 19606; ATCC19606, read-out: MIC, single drug (mM in parentheses)): 1 mM
DRI EDTA:ROB ([1]; A. calcoaceticus human clinical isolate, DRI of the labelled component): 1
MIC in combination EDTA:ROB (mM in parentheses) ([1]; A. calcoaceticus human clinical isolate, EDTA component): 0.6 mM
MIC in combination EDTA:ROB ([1]; A. calcoaceticus human clinical isolate, concentration of the labelled component): 228 µg/mL
MIC ([1]; read-out: MIC, single drug): 228 µg/mL
MIC ([1]; read-out: MIC, single drug (mM in parentheses)): 0.6 mM
DRI EDTA:ROB (E. coli ATCC 11229; E. coli ATCC 11229, DRI of the labelled component): 4
MIC in combination EDTA:ROB (mM in parentheses) (E. coli ATCC 11229; E. coli ATCC 11229, EDTA component): 0.6 mM
MIC in combination EDTA:ROB (E. coli ATCC 11229; E. coli ATCC 11229, concentration of the labelled component): 228 µg/mL
MIC (E. coli ATCC 11229; ATCC11229, read-out: MIC, single drug): 950 µg/mL
MIC (E. coli ATCC 11229; ATCC11229, read-out: MIC, single drug (mM in parentheses)): 2.5 mM
DRI EDTA:ROB (E. coli ATCC 25922; E. coli ATCC 25922, DRI of the labelled component): 4
MIC in combination EDTA:ROB (mM in parentheses) (E. coli ATCC 25922; E. coli ATCC 25922, EDTA component): 2.5 mM
MIC in combination EDTA:ROB (E. coli ATCC 25922; E. coli ATCC 25922, concentration of the labelled component): 950 µg/mL
MIC (E. coli ATCC 25922; ATCC25922, read-out: MIC, single drug): 3800 µg/mL
MIC (E. coli ATCC 25922; ATCC25922, read-out: MIC, single drug (mM in parentheses)): 10 mM
DRI EDTA:ROB (K. pneumoniae ATCC 13883; K. pneumoniae ATCC 13883, DRI of the labelled component): 3
MIC in combination EDTA:ROB (mM in parentheses) (K. pneumoniae ATCC 13883; K. pneumoniae ATCC 13883, EDTA component): 10 mM
MIC in combination EDTA:ROB (K. pneumoniae ATCC 13883; K. pneumoniae ATCC 13883, concentration of the labelled component): 3800 µg/mL
MIC (K. pneumoniae ATCC 13883; ATCC13883, read-out: MIC, single drug): 11400 µg/mL
MIC (K. pneumoniae ATCC 13883; ATCC13883, read-out: MIC, single drug (mM in parentheses)): 30 mM
DRI EDTA:ROB (P. aeruginosa ATCC 27853; P. aeruginosa ATCC 27853, DRI of the labelled component): 2
MIC in combination EDTA:ROB (mM in parentheses) (P. aeruginosa ATCC 27853; P. aeruginosa ATCC 27853, EDTA component): 5 mM
MIC in combination EDTA:ROB (P. aeruginosa ATCC 27853; P. aeruginosa ATCC 27853, concentration of the labelled component): 1900 µg/mL
MIC (P. aeruginosa ATCC 27853; ATCC27853, read-out: MIC, single drug): 3800 µg/mL
MIC (P. aeruginosa ATCC 27853; ATCC27853, read-out: MIC, single drug (mM in parentheses)): 10 mM
DRI EDTA:ROB (P. mirabilis ATCC 43071; P. mirabilis ATCC 43071, DRI of the labelled component): 1
MIC in combination EDTA:ROB (mM in parentheses) (P. mirabilis ATCC 43071; P. mirabilis ATCC 43071, EDTA component): 0.6 mM
MIC in combination EDTA:ROB (P. mirabilis ATCC 43071; P. mirabilis ATCC 43071, concentration of the labelled component): 228 µg/mL
MIC (P. mirabilis ATCC 43071; ATCC43071, read-out: MIC, single drug): 228 µg/mL
MIC (P. mirabilis ATCC 43071; ATCC43071, read-out: MIC, single drug (mM in parentheses)): 0.6 mM
DRI EDTA:ROB (P. putida ATCC 17428; P. putida ATCC 17428, DRI of the labelled component): 2
MIC in combination EDTA:ROB (mM in parentheses) (P. putida ATCC 17428; P. putida ATCC 17428, EDTA component): 2.5 mM
MIC in combination EDTA:ROB (P. putida ATCC 17428; P. putida ATCC 17428, concentration of the labelled component): 950 µg/mL
MIC (P. putida ATCC 17428; ATCC17428, read-out: MIC, single drug): 1900 µg/mL
MIC (P. putida ATCC 17428; ATCC17428, read-out: MIC, single drug (mM in parentheses)): 5 mM
concentration with significant disruption of 24 h preformed biofilms [2]: 1 mM
